Results taken from paper PMC5794198, “Inhibitors of Trypanosoma cruzi Sir2 related protein 1 as potential drugs against Chagas disease” (PLoS Neglected Tropical Diseases, 2018).

Tests used:
Neurons = test: HCS injury score panel in primary neurons; format: cell-based
Protocol: (§1) In vitro assays were also performed in primary cells (hepatocytes and neurons) to evaluate BNIPSpd (9) potential toxicity: (a) host cell nuclei counting after HOECHST staining, (b) viability by measuring the metabolism of WST-8 probe, (c) apoptosis induction through caspase 3/7 activation, (d) evaluation of mitochondrial dysfunction by measuring the membrane potential using TMRM probe, (e) membrane integrity by measuring the extracellular LDH, (f) DNA damage by histone H2AX phosphorylation (exclusively in hepatocytes) and (g) imaging of neurite outgrowth (exclusively in neurons).
The assays were performed 24 hrs after cell collection and isolation. For apoptosis, TMRM, HOECHST and WST-8 assays, cells were seeded at a density of 5000 cells/well in coated 96-well plates, incubated for 24 hrs with the compound and then stained during 1 hour with the following fluorescent probes: 5 μM CellEvent Caspase 3/7 Green Detection Reagent (Invitrogen) for measuring caspase 3/7 activation, 50 μM tetramethyl rhodamine methyl ester (TMRM probe, Anaspec Inc.) for measuring mitochondrial depolarization related to transient cytosolic Ca^2+ signals, 5 μg/mL of HOECHST (Sigma-Aldrich) for nuclei detection and 10 μL/well of WST-8 reagent (Sigma-Aldrich) to detect viable cells. Then, absorbance at 450 nm was measured in order to analyse cell viability (WST-8). Cells were washed three times and analysed using the automatic fluorescence microscope BD Pathway 855. Pictures were taken using a 20 X objective and 488/515 nm ex/em filters for CellEvent Caspase 3/7 reagent, 555/ 645 nm ex/em filters for TMRM and 380/460 nm ex/em filters for HOECHST. Data were analysed with AttoVision (Becton Dickinson). The LDH assay was performed according to the manufacturer's protocol, Cytotoxicity Detection Kit LDH (Roche). LDH release was measured in mU/L in culture media obtained from cells subjected to treatments for 24 hrs, by measuring the released LDH rate of oxidation of NADH to NAD^+ at 340 nm using Synergy 2 from BioTech.
For the neurite outgrowth assay, samples were washed with PBS, fixed using methanol for 10 mins at -20°C. The fixed samples were washed three times with PBS and permeabilized with PBS-Triton X-100 0.3% for 10 mins, washed three times and then blocked with BSA 0.5% in PBS for 30 mis. […] Neurite average length was calculated using the neurite outgrowth module of AttoVision software (Becton Dickinson).
Nimesulide (400 μM) was included as a positive toxicity control, and the vehicle as a negative control. The relative percentage of deviation from the negative control was quantified and assigned with a number from 0 to 5 according to the following criteria: 0 (0–20% deviation), 1 (20–40%), 2 (40–60%), 3 (60–100%), 4 (100–1000%), or 5 (>1000% deviation). […]

Hepatocytes = test: HCS injury score panel in primary hepatocytes; format: cell-based
Protocol: as §1
The assays were performed 24 hrs after cell collection and isolation. […] Then, absorbance at 450 nm was measured in order to analyse cell viability (WST-8). Cells were washed three times and analysed using the automatic fluorescence microscope BD Pathway 855. […] Data were analysed with AttoVision (Becton Dickinson). […] LDH release was measured in mU/L in culture media obtained from cells subjected to treatments for 24 hrs, by measuring the released LDH rate of oxidation of NADH to NAD^+ at 340 nm using Synergy 2 from BioTech.
DNA damage was evaluated by washing cells with PBS and fixation using paraformaldehyde 3% in PBS for 15 mins. […] To determine the DNA damage, intensity in the nuclei was analyzed using AttoVision software (Becton Dickinson). […]

T. cruzi amastigotes = test: High-content screening assay on intracellular T. cruzi amastigotes; format: cell-based, Trypanosoma cruzi; settings: Trypanosoma cruzi, C2C12, 72 h, Y strain in C2C12 host cells, 72 h; read-out: Anti-T. cruzi Activity Amastigotes (EC50 ± SD)
How it was run: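 C2C12 host cells were infected 24 hr with Y strain tissue culture-derived trypomastigotes, then exposed to compound for 72 hrs. After paraformaldehyde fixation and DAPI staining, high-content imaging segmented host nuclei and parasite kinetoplast DNA. Read-out was the average number of amastigotes per host cell.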

[1] = test system: T. cruzi epimastigotes, wild-type (WT); test: T. cruzi epimastigote resazurin viability assay, wild-type; format: cell-based, Trypanosoma cruzi; settings: CL-Brener, 64 h + 6 h resazurin; means ± SD (n = 4)
Protocol: T. cruzi epimastigotes were seeded at 1.25 x 10^6 cells/mL in a 96-well plate in the presence of varying concentrations of test compounds. Following a 64-hour incubation, 15 μL of a resazurin solution (Sigma-Aldrich; 1.1 mg/mL in PBS). […] Each assay was performed in at least triplicate in parallel to the known trypanocidal agent nifurtimox.

Gastric stability = format: in vitro ADME
Solubility = format: physicochemical
[2] = combined score of cytotoxicity panel, 24 hrs

Which “Concentration from which toxicity was most significant in neurons” value (Neurons; HCS panel) does the source give for `O=C1c2cccc3cccc(c23)C(=O)N1CCCNCCCCNCCCNCCCN1C(=O)c2cccc3cccc(c23)C1=O` [Compound 9, BNIP Spermidine] here?
The value was 12.5 µM.

And the “Concentration up to which no effects in neurons” value (Neurons; HCS panel)?
The value was 0.7 µM.

What about the “Injury score for neurons” value (Neurons; at higher concentrations (50 μM)) of the same molecule?
The value was “high levels”.

And the “Injury score for neurons” value (Neurons; [2])?
Its value is “moderate injury (moderate injury (≥5-to <12))”.

What about the “Injury score for hepatocytes” value (Hepatocytes; at 50 μM) of the same molecule?
The value was “low injury (low injury (1 to <5))”.

And the “Injury score for hepatocytes” value (Hepatocytes; [2])?
The value was “low injury (low injury (1 to <5))”.

And the EC50 (T. cruzi amastigotes)?
The EC50 was 2840 ± 180 nM.

And the “EC50 against T. cruzi epimastigotes WT” value [1]?
Its value is “moderate activity”.

What about the Gastric stability (Gastric stability) of the same molecule?
The Gastric stability was 100%.

What about the Aqueous solubility (Solubility) of the same molecule?
Its Aqueous solubility is “up to 70%”.
